Experimental findings from patent US20230024438A1, “INHIBITORS OF HIF-2ALPHA” (ARCUS BIOSCIENCES, INC., priority 2019, published 2023) are described below.

pIC50: −log10 of the molar value. Read-outs that look alike come from different tables or passages of the source. Bounds are passed on as bounds.

Test [1] has as its target T1, Histidine tagged HIF-2α protein containing PAS-B domain (240-350) (Homo sapiens, UniProt Q99814).
T1 construct: Histidine tagged HIF-2α protein containing PAS-B domain (240-350) was prepared and purified in house; made in house
In words: HIF-2α Scintillation Proximity Assay (SPA). Format: binding. The protocol:
Tritium labeled compound N-(3-chlorophenyl)-4-nitro-2,1,3-benzoxadiazol-5-amine was obtained from American Radiolabeled Chemicals Inc. and copper chelate PVT SPA beads were from PerkinElmer (Cat #RPNQ0095). Histidine tagged HIF-2α protein containing PAS-B domain (240-350) was prepared and purified in house.
Compounds solubilized in DMSO were dispensed into a white 384-well polystyrene non-binding flat clear bottom plate (Greiner Bio-One, Cat #781903) using an HP D300 dispenser. Ten microliters of HIS-tagged HIF-2α protein in buffer (25 mM Tris-HCl, pH 7.4, 150 mM NaCl, 0.15% BSA and 0.001% Tween 20) was added to the compound wells and allowed to incubate for 1 hour at room temperature. Ten microliters of SPA bead mix were added to the wells and incubated for an additional 45 minutes, followed by 10 ul of ^3H-tracer solution. Final assay conditions comprised 50 nM HIF-2α protein, 25 nM radiolabeled tracer and 3 ug beads per well with compounds in 2% DMSO. The plate was read using a MicroBeta Microplate Counter (PerkinElmer) for luminescence detection. The IC50 values of the test compounds were determined from compound dose response curves fitted using a standard four parameter fit equation and are reported in Table 1.
A general note: SPA uses beads or plates that emit light when radiolabelled molecules are held near them.

A further test concerns the target T2, HIF-2α (Homo sapiens, UniProt Q99814).
T2 construct: endogenous in cells; host or cells: 786-O cells (ATCC CRL-1932) stably carrying the Cignal Lenti HIF Luc Reporter
In words: HIF-2α Luciferase Reporter Assay. The format is cell-based. The method, then: Stable cell lines were generated by transducing 786-O cells (ATCC, CRL-1932) with Cignal Lenti HIF Luc Reporter lentivirus (CLS-007L, Qiagen) according to the manufacturer's guidelines. In brief, 0.3×10^6 786-0 cells were transduced with lentivirus at a Multiplicity of Infection (MOI) of 25 for 24 hours. After transduction, cells were replenished with fresh RPMI 1640 Medium (Cat. No. 11875085, Thermo Fisher,) supplemented with 10% FBS (Cat. No. A3160502, Gibco), 2 mM GlutaMax (Cat. No. 35050-061, Invitrogen) and 100 units of penicillin and 100 μg of streptomycin/mL (Cat. No 15070063, Thermo Fisher) for another 24 hours. Antibiotic selection was performed in cell media containing 4 μg/mL of Puromycin. After 7 days of antibiotic selection, stable pools of surviving cells were expanded and used in a luciferase reporter assay.
On day one, 20 uL of HIF-Luc-786-0 cells in OptiMem (Cat. No. 31985088, Thermo Fisher) were seeded into each well of a 384 well white opaque plate (Corning 3570) and incubated at 37° C. and 5% CO2. Twenty microliters of 2× test compounds in OptiMem were added to cells after 4 hours of incubation. Final assay conditions comprised 20,000 cells per well in 1% DMSO with test compound concentrations ranging from 50 uM to 0 uM. After 20 hours incubation at 37° C. and 5% CO2, luciferase activity was determined using ONE-Glo Luciferase Assay Reagent (E6110, Promega) following the manufacture's recommended procedure. Briefly, 40 uL of ONE-Glo luciferase reagents were added to each well and luciferase signals were measured using an Envision 2102 Multilabel Reader. Percentage maximum activity in each test well was calculated based on DMSO (maximum activity) and no cell control wells (baseline activity). The IC50 values of the test compounds were determined from compound dose response curves fitted using a standard four parameter fit equation.
(In general: In a reporter assay the amount or activity of a reporter protein is the signal.)

[2] abbreviates: 50 nM HIF-2α protein, 25 nM radiolabeled tracer, read-out: HIF-2α Scintillation Proximity Assay.
The mark [3] stands for this setting: HIF-Luc-786-0 cells, 20 hours incubation, luciferase activity, read-out: HIF-2α Luciferase Assay.

T2 sequence (Q99814 whole entry): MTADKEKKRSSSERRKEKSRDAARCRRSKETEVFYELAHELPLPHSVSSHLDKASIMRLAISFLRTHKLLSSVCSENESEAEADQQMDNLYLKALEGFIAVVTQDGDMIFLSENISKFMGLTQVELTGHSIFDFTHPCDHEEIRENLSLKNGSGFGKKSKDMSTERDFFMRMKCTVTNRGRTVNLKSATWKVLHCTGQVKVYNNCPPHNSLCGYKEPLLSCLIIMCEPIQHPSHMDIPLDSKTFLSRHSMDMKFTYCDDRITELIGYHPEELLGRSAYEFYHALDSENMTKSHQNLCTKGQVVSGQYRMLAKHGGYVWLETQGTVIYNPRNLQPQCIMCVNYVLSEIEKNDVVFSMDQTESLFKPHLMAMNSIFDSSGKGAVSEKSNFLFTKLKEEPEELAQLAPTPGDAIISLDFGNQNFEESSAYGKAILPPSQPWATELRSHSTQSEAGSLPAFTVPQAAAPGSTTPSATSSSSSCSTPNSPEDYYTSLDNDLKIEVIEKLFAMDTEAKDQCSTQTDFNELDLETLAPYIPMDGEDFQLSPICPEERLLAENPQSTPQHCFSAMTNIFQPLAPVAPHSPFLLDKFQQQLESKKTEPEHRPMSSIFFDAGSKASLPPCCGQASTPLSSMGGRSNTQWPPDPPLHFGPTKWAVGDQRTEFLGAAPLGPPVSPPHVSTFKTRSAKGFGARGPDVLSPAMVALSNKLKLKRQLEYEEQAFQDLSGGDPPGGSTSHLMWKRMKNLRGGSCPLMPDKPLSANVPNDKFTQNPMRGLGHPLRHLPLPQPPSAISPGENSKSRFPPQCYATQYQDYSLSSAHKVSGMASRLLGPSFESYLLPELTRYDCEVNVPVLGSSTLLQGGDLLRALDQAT
T1 sequence (Q99814 240-350): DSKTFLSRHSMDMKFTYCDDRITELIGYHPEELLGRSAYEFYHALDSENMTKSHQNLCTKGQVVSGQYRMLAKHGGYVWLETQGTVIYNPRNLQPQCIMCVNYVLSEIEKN

Take `CS(=O)(=O)c1ccc(Oc2cc(F)cc(C#N)c2)c2c(C#N)n[nH]c12` [Example 10, 4-(3-Cyano-5-fluorophenoxy)-7-methanesulfonyl-1H-indazole-3-carbonitrile]: the pIC50 was < 5.00 in test [1] (setting [2]) and 5.00 to 6.00 at HIF-2α (setting [3]).

For the compound `O=S(=O)(c1ccc(Oc2cccc(C(F)(F)F)c2)c2cn[nH]c12)C(F)(F)F` [Example 32, 4-[3-(Trifluoromethyl)phenoxy]-7-(trifluoromethylsulfonyl)-1H-indazole], the pIC50 (in test [1] (setting [2]); on HIF-2α (setting [3])) was < 5.00 each time.

On to `N#Cc1cc(Oc2ccc(S(=O)(=O)C(F)(F)F)c3[nH]ncc23)ccc1Cl` [Example 35, 2-Chloro-5-[[7-(trifluoromethylsulfonyl)-1H-indazol-4-yl]oxy]benzonitrile], for which the pIC50 in test [1] (setting [2]) was 5.00 to 6.00; on HIF-2α (setting [3]) it was < 5.00.

On to `O=S(=O)(c1ccc(Oc2ccc(F)cc2)c2cn[nH]c12)C(F)(F)F` [Example 18, 4-(p-Fluorophenoxy)-7-(trifluoromethylsulfonyl)-1H-indazole], for which the pIC50 in test [1] (setting [2]) was < 5.00; on HIF-2α (setting [3]), 5.00 to 6.00.

`N#Cc1ccc(Oc2ccc(S(=O)(=O)C(F)(F)F)c3[nH]ncc23)cc1` [Example 19, p[7-(Trifluoromethylsulfonyl)-1H-indazol-4-yloxy]benzonitrile]: the results for the pIC50 (in test [1] (setting [2]); at HIF-2α (setting [3])) were < 5.00 and 5.00 to 6.00, respectively.

As for `O=S(=O)(c1ccc(Oc2ccc(Cl)cc2)c2cn[nH]c12)C(F)(F)F` [Example 17, 4-(p-Chlorophenoxy)-7-(trifluoromethylsulfonyl)-1H-indazole], the pIC50 in test [1] (setting [2]) was < 5.00; at HIF-2α (setting [3]), 5.00 to 6.00.

Consider `O=S(=O)(c1ccc(NCc2ccccc2F)c2cn[nH]c12)C(F)(F)F` [Example 50, N-[(2-Fluorophenyl)methyl]-7-(trifluoromethylsulfonyl)-1H-indazol-4-amine], for which the pIC50 (in test [1] (setting [2]); at HIF-2α (setting [3])) was < 5.00 throughout.

Consider `O=S(=O)(c1ccc(NC2CC(F)(F)C2)c2cn[nH]c12)C(F)(F)F` [Example 57, N-(3,3-Difluorocyclobutyl)-7-trifluoromethanesulfonyl-1H-indazol-4-amine], for which the results for the pIC50 (in test [1] (setting [2]); on HIF-2α (setting [3])) were 5.00 to 6.00 and < 5.00, respectively.

With `CS(=O)(=O)c1ccc(Oc2cc(F)cc(Cl)c2)c2c(Cl)n[nH]c12` [Example 9, 3-Chloro-4-(3-chloro-5-fluorophenoxy)-7-methanesulfonyl-1H-indazole], the pIC50 in test [1] (setting [2]) was < 5.00; on HIF-2α (setting [3]) it was 5.00 to 6.00.

With `O=S(=O)(c1ccc(Nc2cc(F)cc(Cl)c2)c2cn[nH]c12)C(F)(F)F` [Example 47, (3-Chloro-5-fluorophenyl)[7-(trifluoromethylsulfonyl)-1H-indazol-4-yl]amine], the pIC50 in test [1] (setting [2]) is 5.00 to 6.00; at HIF-2α (setting [3]) it was < 5.00.

Turning to `N#Cc1cc(F)cc(Oc2ccc(S(=O)(=O)C(F)(F)F)c3cn[nH]c23)c1` [Example 70, 3-Fluoro-5-[4-(trifluoromethylsulfonyl)-1H-indazol-7-yloxy]benzonitrile], the pIC50 (in test [1] (setting [2]); on HIF-2α (setting [3])) was 5.00 to 6.00 in each case.

Consider `Cc1n[nH]c2c(S(=O)(=O)C(F)(F)F)ccc(Oc3cc(F)cc(C#N)c3)c12` [Example 58, 3-Fluoro-5-[(3-methyl-7-trifluoromethanesulfonyl-1H-indazol-4-yl)oxy]benzonitrile], for which the pIC50 (in test [1] (setting [2]); on HIF-2α (setting [3])) was 5.00 to 6.00 throughout.

Regarding `O=S(=O)(c1ccc(Nc2cc(F)cc(F)c2)c2cn[nH]c12)C(F)(F)F` [Example 46, (3,5-Difluorophenyl)[7-(trifluoromethylsulfonyl)-1H-indazol-4-yl]amine], the pIC50 was 5.00 to 6.00 in test [1] (setting [2]) and < 5.00 at HIF-2α (setting [3]).

Regarding `N#Cc1cc(Oc2ccc(S(=O)(=O)C(F)(F)F)c3[nH]ncc23)ccc1F` [Example 36, 2-Fluoro-5-[[7-(trifluoromethylsulfonyl)-1H-indazol-4-yl]oxy]benzonitrile], the pIC50 in test [1] (setting [2]) is 5.00 to 6.00; at HIF-2α (setting [3]) it was < 5.00.

For the compound `O=S(=O)(c1ccc(Cc2cccc(Cl)c2)c2cn[nH]c12)C(F)(F)F` [Example 59, 4-[(3-Chlorophenyl)methyl]-7-trifluoromethanesulfonyl-1H-indazole], the pIC50 is < 5.00 in test [1] (setting [2]) and 5.00 to 6.00 at HIF-2α (setting [3]).

`O=S(=O)(c1ccc(Oc2cc(F)cc(Cl)c2)c2cn[nH]c12)C(F)(F)F` [Example 40, 4-(3-Chloro-5-fluorophenoxy)-7-(trifluoromethylsulfonyl)-1H-indazole]: the results for the pIC50 (in test [1] (setting [2]); on HIF-2α (setting [3])) were > 6.00 and 5.00 to 6.00, respectively.

As for `N#Cc1cc(Oc2ccc(S(=O)(=O)C(F)(F)F)c3[nH]ncc23)cc(C(F)(F)F)c1` [Example 39, 3-(Trifluoromethyl)-5-[[7-(trifluoromethylsulfonyl)-1H-indazol-4-yl]oxy]benzonitrile], the pIC50 (in test [1] (setting [2]); on HIF-2α (setting [3])) was 5.00 to 6.00 throughout.

`O=S(=O)(c1ccc(Oc2cccc(Cl)c2)c2c(Cl)n[nH]c12)C(F)(F)F` [Example 63, 3-Chloro-4-(m-chlorophenoxy)-7-(trifluoromethylsulfonyl)-1H-indazole]: the pIC50 in test [1] (setting [2]) is 5.00 to 6.00; on HIF-2α (setting [3]), < 5.00.

On to `O=S(=O)(c1ccc(NCc2ccc(F)cc2Cl)c2cn[nH]c12)C(F)(F)F` [Example 54, N-[(2-chloro-4-fluorophenyl)methyl]-7-(trifluoromethylsulfonyl)-1H-indazol-4-amine], for which the pIC50 (in test [1] (setting [2]); on HIF-2α (setting [3])) was < 5.00 each time.

Turning to `N#Cc1cc(F)cc(Oc2ccc(S(=O)(=O)C(F)(F)F)c3[nH]nc(C#N)c23)c1` [Example 60, 4-(3-Cyano-5-fluorophenoxy)-7-trifluoromethanesulfonyl-1H-indazole-3-carbonitrile], the results for the pIC50 (in test [1] (setting [2]); at HIF-2α (setting [3])) were < 5.00 and 5.00 to 6.00, respectively.

Regarding `Fc1cc(Cl)cc(Oc2cnc(C(F)(F)F)c3[nH]ncc23)c1` [Example 69, 4-(3-Chloro-5-fluorophenoxy)-7-(trifluoromethyl)-1H-pyrazolo[3,4-c]pyridine], the pIC50 (in test [1] (setting [2]); on HIF-2α (setting [3])) was 5.00 to 6.00 in each case.

On to `N#Cc1cc(F)cc(Nc2ccc(S(=O)(=O)C(F)(F)F)c3[nH]ncc23)c1` [Example 45, 3-Fluoro-5-[(7-trifluoromethanesulfonyl-1H-indazol-4-yl)amino] benzonitrile], for which the pIC50 (in test [1] (setting [2]); on HIF-2α (setting [3])) was 5.00 to 6.00 throughout.

Regarding `Fc1cc(F)cc(Oc2ccc(C(F)(F)F)c3[nH]ncc23)c1` [Example 26, 4-(3,5-Difluorophenoxy)-7-(trifluoromethyl)-1H-indazole], the pIC50 (in test [1] (setting [2]); on HIF-2α (setting [3])) was 5.00 to 6.00 each time.

Regarding `N#Cc1cc(F)cc(Oc2ccc(S(=O)(=O)C(F)(F)F)c3[nH]ncc23)c1` [Example 15, 3-Fluoro-5-[(7-trifluoromethanesulfonyl-1H-indazol-4-yl)oxy]benzonitrile], the pIC50 (in test [1]; at HIF-2α) was > 6.00 each time.

With `O=S(=O)(c1ccc(NCc2ccc(F)cc2F)c2cn[nH]c12)C(F)(F)F` [Example 53, N-[(2,4-difluorophenyl)methyl]-7-(trifluoromethylsulfonyl)-1H-indazol-4-amine], the pIC50 (in test [1] (setting [2]); at HIF-2α (setting [3])) was < 5.00 throughout.

Regarding `CS(=O)(=O)c1ccc(Oc2cc(F)cc(Cl)c2)c2cn[nH]c12` [Example 7, 4-(3-Chloro-5-fluorophenoxy)-7-methanesulfonyl-1H-indazole], the pIC50 (in test [1] (setting [2]); on HIF-2α (setting [3])) was < 5.00 in each case.
